Test results from patent publication US8946261B2, “Substituted 1, 2, 3, 4-tetrahydroquinolin-7-yl carbamates as acetylcholinesterase inhibitors for treatment of Alzheimer's disease” (priority 2011, dated 2015).

Experiments:
[1] = target: T1, Acetylcholinesterase (AChE) (Mus musculus, UniProt P21836); test: Acetylcholinesterase (AChE) assay in brain (in vitro), Ellman method; assay type: biochemical, Swiss albino mice; details: for AChE inhibitory activity compared to rivastigmine: comparison with rivastigmine; for inhibition at 10 µM / inhibition at 100 µM: read-out: % Inhibition of AChE enzyme
T1 construct: A 10% (w/v) homogenate of brain was prepared; from tissue; host or cells: whole brain of adult Swiss albino mice; supernatant (100,000 g) of the 1% Triton X-100 treated homogenate
T1 sequence (P21836 32-614): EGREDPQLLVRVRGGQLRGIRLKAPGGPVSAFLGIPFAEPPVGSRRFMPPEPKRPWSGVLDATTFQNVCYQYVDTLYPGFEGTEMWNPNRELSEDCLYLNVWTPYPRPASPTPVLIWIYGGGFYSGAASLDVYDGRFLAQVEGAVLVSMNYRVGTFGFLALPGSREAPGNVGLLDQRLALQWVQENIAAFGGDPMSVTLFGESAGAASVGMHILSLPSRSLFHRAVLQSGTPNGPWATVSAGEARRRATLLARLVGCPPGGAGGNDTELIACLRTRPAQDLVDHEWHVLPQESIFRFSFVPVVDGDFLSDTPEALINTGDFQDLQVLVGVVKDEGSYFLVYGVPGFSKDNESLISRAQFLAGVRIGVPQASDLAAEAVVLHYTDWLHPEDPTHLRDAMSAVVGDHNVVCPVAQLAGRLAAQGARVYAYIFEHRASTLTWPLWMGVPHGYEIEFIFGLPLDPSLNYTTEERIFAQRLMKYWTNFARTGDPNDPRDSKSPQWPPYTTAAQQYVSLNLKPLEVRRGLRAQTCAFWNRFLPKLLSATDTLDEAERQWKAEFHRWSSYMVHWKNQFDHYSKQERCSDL
Procedure: Acetylcholinesterase (AChE) Assay in Brain (In Vitro)
The mice were perfused under mild ether anesthesia through heart with ice cooled normal saline (0.9% NaCl) to remove blood-born cholinesterase from the brain. After perfusion the whole brain was taken out. A 10% (w/v) homogenate of brain was prepared first by homogenizing in an Ultra-Turrax T25 homogenizer at a speed of 9500 rpm thrice giving intervals for few seconds in between the runs, with sodium phosphate buffer (0.03 M, pH-7)).
The brain homogenate in volume of 500 μl was mixed with 1% Triton X-100 (1% w/v in 0.03M sodium phosphate buffer, pH-7) and centrifuged at 100,000 g at 4° C. in a Beckman Ultracentrifuge (LE 80, USA), using a fixed angle rotor (80 ti) for 60 min. Supernatant was collected and stored at 4° C. for acetylcholinesterase estimation.
The assay for each sample was run in triplicate and each experiment was performed twice.
The specific activity of AChE is expressed in μM/min/mg of protein.
The test substance (dissolved in ethanol) was incubated with enzyme source in different concentrations ([…]) for 30 min at 37° C. prior to obtain kinetic profile of AChE activity. […] The AChE inhibitory activity was calculated on the basis of % decrease in AChE activity from control values i.e. AChE activity without incubation with any standard or test drug.
The results are expressed as mean±S.E.M. Statistical analysis of passive avoidance values were performed by t-test. The IC50 value was calculated by non linear regression method using GraphPad Prism software.

Swiss albino male mice = test: Gross behavioral study; details: for cholinergic symptoms / side effects: upto 24 hrs of drug administration; for cholinergic symptoms: 25 mg/kg; for side effects: 50 mg/kg

Structure (SMILES)	IC50 [1] [µM]	inhibition at 10 µM [1] [%]	inhibition at 100 µM [1] [%]	also measured
C#CCN1CCCc2ccc(OC(=O)Nc3ccccc3OC)cc21 [Compound 10e, 1-(prop-2-ynyl)-1,2,3,4-tetrahydroquinolin-7-yl 2-methoxyphenylcarbamate]	0.92 ± 0.12	95.4	96.3	AChE inhibitory activity compared to rivastigmine [1]: slightly better; tolerability (Swiss albino male mice; 125 mg/kg oral dose): Well tolerated; cholinergic symptoms / side effects (Swiss albino male mice; 125 mg/kg oral dose): No cholinergic symp-
Cc1ccc(NC(=O)Oc2ccc3c(c2)NCCC3)cc1 [Compound 9a, 1,2,3,4-tetrahydroquinolin-7-yl 4-methylphenylcarbamate]	> 100	0.01	1.45	
CN1CCCc2ccc(OC(=O)Nc3ccccc3F)cc21 [Compound 8l, 1-methyl-1,2,3,4-tetrahydroquinolin-7-yl 2-fluorophenylcarbamate]	55.9 ± 2.97	32.8	58.8	
COc1cc2c(cc1OC)C(=O)C(CC1CCN(Cc3ccccc3)CC1)C2 (centres unmarked) [Donepezil]				tolerability (Swiss albino male mice; 5 mg/kg dose): well tolerated; cholinergic symptoms (Swiss albino male mice): Moderate cholinergic; cholinergic symptoms (Swiss albino male mice; listed as donepezil): moderate cholinergic symptoms; side effects (Swiss albino male mice): severe side effects were found initially and all; side effects (Swiss albino male mice; listed as donepezil): severe side effects were found initially
COc1ccc(NC(=O)Oc2ccc3c(c2)N(Cc2ccccc2)CCC3)cc1 [Compound 8j, 1-benzyl-1,2,3,4-tetrahydroquinolin-7-yl 4-methoxyphenylcarbamate]	> 100	1.41	3.59	
Nc1c2c(nc3ccccc13)CCCC2 [Tacrine]				tolerability (Swiss albino male mice; 5 mg/kg dose): well tolerated at 5 mg/kg dose
C#CCN1CCCc2ccc(OC(=O)N(C)C)cc21 [Compound 10g, 1-(prop-2-ynyl)-1,2,3,4-tetrahydroquinolin-7-yl dimethylcarbamate]	0.68 ± 0.02	94.2	96.5	AChE inhibitory activity compared to rivastigmine [1]: slightly better
C#CCN1CCCc2ccc(OC(=O)Nc3ccccc3C)cc21 [Compound 10a, 1-(prop-2-ynyl)-1,2,3,4-tetrahydroquinolin-7-yl 2-methylphenylcarbamate]	13.3 ± 3.33	52.5	60.8	
O=C(Nc1ccc(Cl)cc1)Oc1ccc2c(c1)N(Cc1ccccc1)CCC2 [Compound 8f, 1-benzyl-1,2,3,4-tetrahydroquinolin-7-yl 4-chlorophenylcarbamate]	> 100	2.1	12.5	
C#CCN1CCCc2ccc(OC(=O)NCCCCCCC)cc21 [Compound 10b, 1-(prop-2-ynyl)-1,2,3,4-tetrahydroquinolin-7-yl heptylcarbamate]	7.59 ± 0.62	55.5	77.2	AChE inhibitory activity, fold lower compared to the drug Rivastigmine ([1]; fold lower than Rivastigmine): 7 fold; tolerability (Swiss albino male mice; 125 mg/kg oral dose): Well tolerated; cholinergic symptoms / side effects (Swiss albino male mice; 125 mg/kg oral dose): No cholinergic symp-
C#CCN1CCCc2ccc(OC(=O)Nc3ccccc3Br)cc21 [Compound 10c, 1-(prop-2-ynyl)-1,2,3,4-tetrahydroquinolin-7-yl 2-bromophenylcarbamate]	2.82 ± 0.04	71.7	87.3	AChE inhibitory activity compared to rivastigmine [1]: almost equal
O=C(Nc1ccccc1F)Oc1ccc2c(c1)NCCC2 [Compound 9b, 1,2,3,4-tetrahydroquinolin-7-yl 2-fluorophenylcarbamate]	76.3 ± 0.9	10.5	55.7	
C#CCN1CCCc2ccc(OC(=O)Nc3c(C)cccc3C(C)C)cc21 [Compound 10d, 1-(prop-2-ynyl)-1,2,3,4-tetrahydroquinolin-7-yl 2-isopropyl-6-methylphenylcarbamate]	> 100	17.9	22.5	
CCCCCCCNC(=O)Oc1ccc2c(c1)N(Cc1ccccc1)CCC2 [Compound 8h, 1-benzyl-1,2,3,4-tetrahydroquinolin-7-yl heptylcarbamate]	> 100	5.2	10.1	
Cc1ccc(NC(=O)Oc2ccc3c(c2)N(Cc2ccccc2)CCC3)cc1 [Compound 8b, 1-benzyl-1,2,3,4-tetrahydroquinolin-7-yl 4-methylphenylcarbamate]	354 ± 21.5	5.41	25.1	
COc1ccccc1NC(=O)Oc1ccc2c(c1)N(Cc1ccccc1)CCC2 [Compound 8i, 1-benzyl-1,2,3,4-tetrahydroquinolin-7-yl 2-methoxyphenylcarbamate]	298 ± 12.7	2.5	24.1	
O=C(Nc1ccc(Cl)cc1)Oc1ccc2c(c1)NCCC2 [Compound 9d, 1,2,3,4-tetrahydroquinolin-7-yl 4-chlorophenylcarbamate]	126 ± 4.17	1.86	38.9	
O=C(Nc1ccc(F)cc1)Oc1ccc2c(c1)NCCC2 [Compound 9c, 1,2,3,4-tetrahydroquinolin-7-yl 4-fluorophenylcarbamate]	327 ± 15.9	1.15	21.6	
O=C(Nc1ccc(F)cc1)Oc1ccc2c(c1)N(Cc1ccccc1)CCC2 [Compound 8d, 1-benzyl-1,2,3,4-tetrahydroquinolin-7-yl 4-fluorophenylcarbamate]	> 100	5.23	15.5	
C#CCN1CCCc2ccc(OC(=O)Nc3ccc(Cl)cc3)cc21 [Compound 10f, 1-(prop-2-ynyl)-1,2,3,4-tetrahydroquinolin-7-yl 4-chlorophenylcarbamate]	756 ± 208	25.4	30.9	
CCN(C)C(=O)Oc1cccc([C@H](C)N(C)C)c1 [Rivastigmine]				overall locomotor activity (Swiss albino male mice; 1 mg/kg): locomotor activity was normal as control group.; peripheral cholinergic symptoms / tolerability (Swiss albino male mice; 1 mg/kg): 1 mg/kg: No peripheral cholinergic symptoms. Overall; duration of symptom phase (Swiss albino male mice; 2 mg/kg): 25 to 30 min; onset of symptoms after dosing (Swiss albino male mice; 2 mg/kg): 2 mg/kg: 5-10 min after dosing animals become; recovery to normal after dosing (Swiss albino male mice; 2 mg/kg): animals become normal one hr after; time gap between cholinergic side effect and death (Swiss albino male mice; 4 mg/kg): administration. There was no detectable time gap; mortality (Swiss albino male mice; 4 mg/kg oral): 100%; time to mortality after drug administration (Swiss albino male mice; 4 mg/kg oral): ≤ 15 min; peripheral side effects (Swiss albino male mice; oral dose of 3 mg/kg): some peripheral side effects
O=C(Nc1ccccc1F)Oc1ccc2c(c1)N(Cc1ccccc1)CCC2 [Compound 8c, 1-benzyl-1,2,3,4-tetrahydroquinolin-7-yl 2-fluorophenylcarbamate]	> 100	9.87	19.5	
Cc1ccccc1NC(=O)Oc1ccc2c(c1)N(Cc1ccccc1)CCC2 [Compound 8a, 1-benzyl-1,2,3,4-tetrahydroquinolin-7-yl 2-methylphenylcarbamate]	13 ± 0.66	44.1	90.4	
